According to patent publication US20150030566A1, “ANTIMICROBIAL PEPTIDE COMPOSITIONS FOR PLANTS” (Stellenbosch University, priority 2012, published 2015):
Residues, ends and D or L forms follow the SMILES beside them.

Assays:
[1] = tested on: Talaromyces ramulosus (peach isolate); assay: Microdilution broth assay; type: cell-based; set-up: unit not given beside the values
Description: (§1) Microdilution broth and agar assays were used to assess the antifungal activity of the cyclic decapeptides in liquid media and on solid (gel) media, respectively.
(§2) The antibacterial activity of the tyrocidines and gramicidin S against all the bacteria tested was determined by the methods described by Du Toit E A and Rautenbach M (2000) J. Microbiol. Methods, 42, 159-165. The antifungal activity of the tyrocidines against all the […] tested was determined by the methods described by Troskie A M, Vlok N M and Rautenbach M (2012) J. Microbiol. Methods, 91, 551-558.

[2] = tested on: Bacillus subtilis ATCC21332; assay: Microdilution broth assay; type: cell-based; set-up: unit not given beside the values
Description: as §1, §2

[3] = tested on: Listeria monocytogenes B73-MR1; assay: Microdilution broth assay; type: cell-based; set-up: unit not given beside the values
Description: as §1, §2

[4] = tested on: Listeria monocytogenes B73; assay: Microdilution broth assay; type: cell-based; set-up: unit not given beside the values
Description: as §1, §2

Bacillus subtilis 168 = assay: Microdilution broth assay; type: cell-based; set-up: unit not given beside the values
Description: as §1, §2

[5] = tested on: Trichoderma atroviride (wood isolate); assay: Microdilution broth assay; type: cell-based; set-up: unit not given beside the values
Description: as §1, §2

[6] = tested on: Bacillus spizizenii ATCC 6633; assay: Microdilution broth assay; type: cell-based; set-up: unit not given beside the values
Description: as §1, §2

Bacillus subtilis OKB120 = assay: Microdilution broth assay; type: cell-based; set-up: unit not given beside the values
Description: as §1, §2

Bacillus subtilis OKB105 = assay: Microdilution broth assay; type: cell-based; set-up: unit not given beside the values
Description: as §1, §2

[7] = tested on: Talaromyces mineoluteus (peach isolate); assay: Microdilution broth assay; type: cell-based; set-up: unit not given beside the values
Description: as §1, §2

[8] = tested on: Micrococcus luteus NCTG 8340; assay: Microdilution broth assay; type: cell-based; set-up: unit not given beside the values
Description: as §1, §2

[9] = tested on: Cylindrocarpon liriodendri; assay: Microdilution broth assay; type: cell-based; set-up: unit not given beside the values
Description: as §1, §2

Escherichia coli HB101 = assay: Microdilution broth assay; type: cell-based; set-up: unit not given beside the values
Description: as §1, §2

P. digitatum = assay: Preliminary trials on oranges, wound infections; type: in vivo; details: 50 mg/L (50 ppm)
Description: Promising results in preliminarily trials on oranges have also been observed, with 50% and 80% less wound infections by P. digitatum using 50 mg/L (50 ppm) Trc mix and GS, respectively.

fungal pathogens = assay: Plant culture assay, fungal pathogens in growth media; type: in vivo; details: without a major detrimental effect to the plant material
Description: The Trc mix and GS were also tested for use in the sterilization of field-gathered grapevine material for use in plant cultures.
Grapevine tissue culture plants were transferred to MS medium containing GS or Trc mix at a concentration of 15 μg/mL and incubated at 25° C. with a 16 h/8 h day night cycle. The growth and development of the grapevine plantlets were monitored and compared to the control set of plants which were maintained on MS-medium without GS or Trc mix.

[10] = tested on: African daisy (Gerbera hybrid); assay: Cut flower trials, Gerbera; type: in vivo; details: GS at 35 mg/L alone or in the GS+Trc mix
Description: Water uptake was initially better than observed for a commercial product for cut-flower preservation (FIG. 4A).
(§3) Cut flower trials on mini hybrids of the African daisy (Gerbera hybrid) and blue larkspur (Delphinium hybrid) were conducted on 3-day old flowers. Flowers were prepared by cutting 3-5 cm of each stem and each placed separately in a measuring flask with 100 mL containing either no additive, Trc mix (35 mg/L for Gerbera and 25 mg/l for Delphinium), GS (35 mg/L for Gerbera and 25 mg/L for Delphinium), Trc mix+GS (combined 70 mg/L for Gerbera and combined 50 mg/L for Delphinium) or commercial additive for flower preservation. Flowers (6-12 per trial) were kept in a room with both natural and fluorescent lighting (16 hours light/day) at 22±1° C. The volume of water was monitored every 24 hours and noted for each flower.
(§4) Flower condition was rated from 0 to 5, with 0=dead, 1=flower petals dehydrated, closed and drooping, 2=flower still partially open but dehydrated and drooping, 3=flower starts drooping, petals soft, 4=some petals becoming soft, flower still in good condition and 5=flower is in pristine condition with taught petals and stem/leaves.

Delphinium flowers = assay: Cut flower trials, Delphinium; type: in vivo, Delphinium hybrid
Description: Trials with Delphinium flowers and 25 mg/L and 50 mg of GS or Trc mix and GS+Trc mix (50 mg/L combined concentration), were conducted.
as §3, §4

Botrytis cinerea = assay: Microdilution broth assay; type: cell-based; set-up: MIC + SEM / MIC against B. cinerea in PDB (n): unit not given beside the values
Description: as §1, §2

Phaeoacremonium = assay: Hydration tank assay, spore viability; type: cell-based
Description: (§5) This loss of activity in solution was, however, overcome by increasing the Trx mix concentration to 20 mg/L. It must also be emphasized that the Trc mix activity was tested at 10 times (10^7 spores/L) the spore concentration used for the testing of commercial fungicides and at 100 times the spore concentration usually observed in contaminated grapevine material (personal communication with the Department of Plant pathology, Stellenbosch University).
(§6) The activities of the GS and Trc mix were also assessed in the presence of and absence of grapevine stem material in a simulated hydration tank environment. Each 5.0 mL assay contained fungal spores at 10 000 spores/mL, peptide at 10 and 20 μg/mL and grapevine stem material. Grapevine stem material was washed with 70% ethanol and rinsed with sterile water before placement in inoculated hydration tanks, whereafter the Trc mix was added. Controls contained either the peptide or grapevine stem material. The assays were incubated at room temperature for 16 hours, whereafter three 100 μl aliquots of each assay were plated on PDA agar and allowed to grow for three days at 25° C. Some plates were stained with Coomassie brilliant blue stain (0.025% Coomassie, 12.5% isopropanol and 10% acetic acid) for better visualization of the fungal colonies. The number of colonies that developed after three days was recorded and expressed as percentage viable spores after comparing to the control samples which contained no peptide.

Phomopsis = assay: Hydration tank assay, spore viability; type: cell-based; details: 10 μg/ml peptide
Description: as §5, §6

Cylindrocarpon = assay: Hydration tank assay, spore viability; type: cell-based
Description: as §5, §6

CC(C)C[C@@H]1NC(=O)[C@H](CCCN)NC(=O)[C@H](C(C)C)NC(=O)C2CCCN2C(=O)[C@@H](Cc2ccccc2)NC(=O)[C@H](CC(C)C)NC(=O)[C@H](CCCN)NC(=O)[C@H](C(C)C)NC(=O)C2CCCN2C(=O)[C@@H](Cc2ccccc2)NC1=O (stereo partly shown) [GS, Cyclo-(VOLfPVOLfP)] (HELM PEPTIDE1{L.[dF].[O=C(C1CCCN1[*:1])[*:2]].V.[Orn].L.[dF].[O=C(C1CCCN1[*:1])[*:2]].V.[Orn]}$PEPTIDE1,PEPTIDE1,1:R1-10:R2$$$V2.0)
MIC + SEM [1]: 3.0 ± 0.1
MIC + SEM [2]: 8-14
MIC + SEM [3]: 5.6 ± 0.1
MIC + SEM [4]: 9.9 ± 0.2
MIC + SEM (Bacillus subtilis 168): 8-14
MIC + SEM [5]: 4.8 ± 0.3
MIC + SEM [6]: 2.6 ± 0.2
MIC + SEM (Bacillus subtilis OKB120): 8-14
MIC + SEM (Bacillus subtilis OKB105): 8-14
MIC + SEM [7]: 4.2 ± 0.2
MIC + SEM [8]: 28 ± 0.4
MIC + SEM [9]: 2.3 ± 0.1
MIC + SEM (Escherichia coli HB101): 44
less wound infections by P. digitatum (P. digitatum): 80%
concentration sufficient to eliminate fungal pathogens in the growth media (fungal pathogens): 15 mg/L
benefit to flower survival [10]: did not benefit flower survival
phytotoxicity [10]: may have led to some phytotoxicity
phytotoxicity (Delphinium flowers; 25 mg/L): did not show overt phytotoxicity
phytotoxicity (Delphinium flowers; 50 mg/L): proved to be phytotoxic
MIC + SEM (Botrytis cinerea; Broth, Botrytis cinerea): 2.8 ± 0.3
MIC against B. cinerea in PDB (n) (Botrytis cinerea; potato dextrose broth (low salt PDB)): 1.8 ± 0.3
percentage viable spores compared to the growth/survival controls (Phaeoacremonium; +gvs, 10 μg/ml peptide): 0%
percentage viable spores compared to the growth/survival controls (Phaeoacremonium; +gvs, 20 μg/ml peptide): 0%
percentage viable spores compared to the growth/survival controls (Phaeoacremonium; −gvs, 10 μg/ml peptide): 0%
percentage viable spores compared to the growth/survival controls (Phaeoacremonium; −gvs, 20 μg/ml peptide): 0%
percentage viable spores compared to the growth/survival controls (Phomopsis; +gvs): 0%
percentage viable spores compared to the growth/survival controls (Phomopsis; −gvs): 0%
percentage viable spores compared to the growth/survival controls (Cylindrocarpon; +gvs, 10 μg/ml peptide): 0%
percentage viable spores compared to the growth/survival controls (Cylindrocarpon; +gvs, 20 μg/ml peptide): 0%
percentage viable spores compared to the growth/survival controls (Cylindrocarpon; −gvs, 10 μg/ml peptide): 0%
percentage viable spores compared to the growth/survival controls (Cylindrocarpon; −gvs, 20 μg/ml peptide): 0%
